On the set-up of assay [1]: species or system human. To be noted: in vivo, sc.
On the set-up of assay [2]: species or system human; unit not given here. To be noted: in vivo.

The values below come from patent US20210130445A1 (priority 2019, published 2021).

With `C[C@@H]1[C@H](c2c(F)ccc(F)c2F)C[C@H](NC(=O)c2cnc3c(c2)C[C@@]2(C3)C(=O)Nc3ncccc32)C(=O)N1CC(F)(F)F` [atogepant], in assay [1], the patient-reported pain entry is “pain free”.
On to onabotulinumtoxinA, for which the patient-reported pain result in assay [1] is recorded as “pain free”. The “duration of significant pain alleviation” value in assay [2] was “one to about six”.

B1: erenumab (antibody, chains of the INN, looked up, V domains shown)
VH: QVQLVESGGGVVQPGRSLRLSCAASGFTFSSFGMHWVRQAPGKGLEWVAVISFDGSIKYSVDSVKGRFTISRDNSKNTLFLQMNSLRAEDTAVYYCARDRLNYYDSSGYYHYKYYGMAVWGQGTTVTVSS
VL: QSVLTQPPSVSAAPGQKVTISCSGSSSNIGNNYVSWYQQLPGTAPKLLIYDNNKRPSGIPDRFSGSKSGTSTTLGITGLQTGDEADYYCGTWDSRLSAVVFGGGTKLTVL
Consider B1, for which the “duration of significant pain alleviation” value in assay [2] is given as “one to about six”.
